According to patent US10626081B2, “Farnesoid X receptor agonists and uses thereof” (Metacrine, Inc., priority 2015, dated 2020):

What was measured:
[1] = biological target: T1, FXR (Homo sapiens, UniProt Q96RI1); assay: In Vitro FXR Assay (PGL3): luciferase reporter in transfected CV-1 cells; type: cell-based; conditions: CV-1 cells transfected with hFXR, hRXR, PGL3-ECRE*6-luc; 18 h incubation; luminescence
T1 construct: expressed in transfected cells; host or cells: CV-1 cells
T1 sequence (Q96RI1 1-486): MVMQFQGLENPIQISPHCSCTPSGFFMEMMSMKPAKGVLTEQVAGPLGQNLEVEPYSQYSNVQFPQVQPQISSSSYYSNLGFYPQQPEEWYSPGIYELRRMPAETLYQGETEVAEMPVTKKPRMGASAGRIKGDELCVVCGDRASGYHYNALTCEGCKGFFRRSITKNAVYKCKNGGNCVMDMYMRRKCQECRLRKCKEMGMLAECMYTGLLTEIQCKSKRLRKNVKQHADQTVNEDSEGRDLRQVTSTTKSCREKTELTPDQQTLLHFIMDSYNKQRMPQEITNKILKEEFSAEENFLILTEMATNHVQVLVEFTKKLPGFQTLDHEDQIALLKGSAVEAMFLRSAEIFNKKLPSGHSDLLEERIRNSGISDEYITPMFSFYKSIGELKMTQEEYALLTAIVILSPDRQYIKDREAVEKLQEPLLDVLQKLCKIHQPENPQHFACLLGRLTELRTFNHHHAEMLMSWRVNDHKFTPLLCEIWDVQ
T1 sequence (P19793 1-462 partner): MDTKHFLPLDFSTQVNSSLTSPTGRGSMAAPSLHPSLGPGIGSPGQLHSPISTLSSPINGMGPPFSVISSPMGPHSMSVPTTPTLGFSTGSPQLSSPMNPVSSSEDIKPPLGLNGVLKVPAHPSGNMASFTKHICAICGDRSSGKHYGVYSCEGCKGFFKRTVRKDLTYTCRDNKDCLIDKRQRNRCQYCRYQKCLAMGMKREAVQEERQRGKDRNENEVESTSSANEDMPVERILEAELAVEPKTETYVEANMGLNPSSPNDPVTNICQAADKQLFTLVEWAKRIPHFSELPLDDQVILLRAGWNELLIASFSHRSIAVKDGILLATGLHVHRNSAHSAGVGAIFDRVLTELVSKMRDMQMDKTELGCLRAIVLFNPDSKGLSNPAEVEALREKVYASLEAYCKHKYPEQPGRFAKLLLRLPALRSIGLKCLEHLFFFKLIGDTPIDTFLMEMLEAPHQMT
Protocol: Example B-1: In Vitro FXR Assay (PGL3)
CV-1 cells were seeded at a density of 2,000,000 cells in a T175 flask with DMEM+10% charcoal double-stripped FBS and incubated at 37° C. in a 5% CO2 for 18 h (O/N).
After 18 h of incubation, the medium in the T175 flask was changed with fresh DMEM+10% charcoal super-stripped serum.
To prepare the transfection reaction mixture, the transfection reagent (X-tremeGENE HP from Roche, Cat #06 366 236 001) was added in to a 1.5 mL microcentrifuge tube labelled “A” at a ratio of 1:3 (DNA in transfection reagent in μL). OptiMEM medium (Life Technologies, Cat #31985-062) was added accordingly to provide a total volume of 1 mL. The transfection reaction mixture was then briefly vortexed and incubated at room temperature for 5 minutes.
In a separate 1.5 mL microcentrifuge tube labelled “B”, 100 μL OptiMEM and plasmids XPD90Gal pCMXhFXRfl, pCMXhRXRfl+PGL3-ECRE*6-luc+CMX-YFP in the ratio 2 μg:2 μg:18 μg:3 μg were added. This microcentrifuge tube “B” was then briefly vortexed and incubated at room temperature for 5 minutes.
The total volume in tube labelled “A” was then transferred in to tube labelled “B.” The mixture was then briefly vortexed and the transfection:DNA complex was then incubated for about 15-20 minutes at room temperature.
Following incubation, the transfection reagent/DNA mixture complex was then added to cells in the T175 flask and the cells were incubated at […] (O/N) at 37° C. in 5% CO2.
In a 96 well plate, a half logarithmic serial dilution was prepared. OptiMEM was used as the diluent. Using any of one of the compounds described herein, a compound stock solution of 10 mM was prepared. An initial 1:100 dilution was made into the first well for a final concentration of 100 μM. The final concentrations in the 96-well plate was prepared by using a multichannel pipette to transfer 5 μL of the diluted compound to 384-well plate in quadruplicate.
Cells in T175 flask were trypsinized and cells were resuspended in 40 mL phenol red free DMEM+10% charcoal super-stripped FBS. Typically, one T175 flask was sufficient to seed two 384 well plates. CV-1 cells were seeded at 45 μL cell suspension/well using a multi-channel pipet or a 384 multidrop dispenser. The cells were then incubated for 18 hrs, overnight.
After removing the plates from the incubator, the medium was flicked out of plate and 384 well plate was turned upside down onto paper towel. The remaining medium was gently tapped out. 15 μL lysis buffer was then added to each well using a multichannel pipet or a 384 well multi-drop dispenser. After incubation for 10 minutes at room temperature on shaker, 30 μL Luciferase buffer was added to each well. Luminescence counts were taken immediately using the Perkin Elmer Envision.
The ability of the compounds disclosed herein to […] FXR activity was quantified and the respective EC50 value was determined. Fex=fexaramine.

[2] = biological target: T1, FXR; assay: In Vitro FXR Assay (TK): TK-ECRE-luc reporter in transfected CV-1 cells; type: cell-based; conditions: CV-1 cells transfected with hFXR, hRXR, 18 h incubation, luminescence
Method in brief: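 CV-1 cells in charcoal-stripped FBS medium were transiently cotransfected with hFXR, hRXR, TK-ECRE-luc and pCMX-YFP plasmids. After 18 h, compounds serially diluted in DMSO were added for 18 h at 37 °C, 5% CO2, then cells were lysed and luminescence read.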

For COC(=O)/C=C/c1cccc(N(Cc2ccc(-c3ccc(N(C)C)cc3)cc2)C(=O)C23CC4CC(CC(C4)C2)C3)c1 [compound 12, (E)-Methyl 3-(3-(-N-((4′-(dimethylamino)-[1,1′-biphenyl]-4-yl)methyl)adamantane-1-carboxamido)phenyl)acrylate], the “Cmpd/Fex (ratio of the EC50 for the test compound relative to the EC50 of the Fexaramine control)” value [1] was “+++ (‘+++’ means Cmpd/Fex < 10)” and the EC50 [2] was 1000 to 10000 nM.
COC(=O)/C=C/c1cccc(N(Cc2ccc(C3CCCCC3)cc2)C(=O)C2CCCCC2)c1 [compound 13, (E)-methyl 3-(3-(N-(4-cyclohexylbenzyl)cyclohexanecarboxamido)phenyl)acrylate] was tested, and the “Cmpd/Fex (ratio of the EC50 for the test compound relative to the EC50 of the Fexaramine control)” value [1] was “+ (‘+’ means Cmpd/Fex > 100)” and the EC50 [2] was over 10000 nM.
For COC(=O)/C=C/c1cccc(N(Cc2ccc(-c3ccc(N(C)C)cc3)cc2)C(=O)C2CCCC2)c1 [compound 14, (E)-Methyl 3-(3-(N-((4′-(dimethylamino)-[1,1′-biphenyl]-4-yl)methyl)cyclopentanecarboxamido)phenyl)acrylate], the “Cmpd/Fex (ratio of the EC50 for the test compound relative to the EC50 of the Fexaramine control)” value [1] was “+++ (‘+++’ means Cmpd/Fex < 10)” and the EC50 [2] was at most 1000 nM.
With COC(=O)/C=C/c1cccc(N(Cc2ccc(-c3ccc(N(C)C)cc3)cc2)C(=O)C2CCC2)c1 [compound 15, (E)-Methyl 3-(3-(N-((4′-(dimethylamino)-[1,1′-biphenyl]-4-yl)methyl)cyclobutanecarboxamido)phenyl) acrylate] the “Cmpd/Fex (ratio of the EC50 for the test compound relative to the EC50 of the Fexaramine control)” value [1] was “+++ (‘+++’ means Cmpd/Fex < 10)” and the EC50 [2] was 1000 to 10000 nM.
With COC(=O)/C=C/c1cccc(N(Cc2ccc(-c3ccc(N(C)C)cc3)cc2)C(=O)N2CCCCC2)c1 [compound 16] the “Cmpd/Fex (ratio of the EC50 for the test compound relative to the EC50 of the Fexaramine control)” value [1] was “++ (‘++’ means Cmpd/Fex > 10 & < 100)” and the EC50 [2] was 1000 to 10000 nM.
For COC(=O)/C=C/c1cccc(N(Cc2ccc(-c3ccc(N(C)C)cc3)cc2)C(=O)[C@H]2CC[C@@H](O)CC2)c1 [compound 18, cis-(E)-Methyl 3-(3-(N-((4′-(dimethylamino)-[1,1′-biphenyl]-4-yl)methyl)-4-hydroxycyclohexanecarboxamido)phenyl)acrylate], the “Cmpd/Fex (ratio of the EC50 for the test compound relative to the EC50 of the Fexaramine control)” value [1] was “+++ (‘+++’ means Cmpd/Fex < 10)” and the EC50 [2] was at most 1000 nM.
In the case of COC(=O)/C=C/c1cccc(N(Cc2ccc(-c3ccc(N(C)C)cc3)cc2)C(=O)[C@H]2CC[C@H](O)CC2)c1 [compound 19, trans-(E)-Methyl 3-(3-(N-((4′-(dimethylamino)-[1,1′-biphenyl]-4-yl)methyl)-4-hydroxycyclohexanecarboxamido)phenyl)acrylate], the “Cmpd/Fex (ratio of the EC50 for the test compound relative to the EC50 of the Fexaramine control)” value [1] is reported as “+++ (‘+++’ means Cmpd/Fex < 10)” and the EC50 [2] is reported as at most 1000 nM.
COC(=O)/C=C/c1cccc(N(Cc2ccc(-c3ccc(N(C)C)c(C)c3)cc2)C(=O)C2CCCCC2)c1 [compound 20, (E)-Methyl 3-(3-(N-((4′-(dimethylamino)-3′-methyl-[1,1′-biphenyl]-4-yl)methyl)cyclohexanecarboxamido)phenyl)acrylate] was tested, and the “Cmpd/Fex (ratio of the EC50 for the test compound relative to the EC50 of the Fexaramine control)” value [1] was “+++ (‘+++’ means Cmpd/Fex < 10)” and the EC50 [2] was at most 1000 nM.
COC(=O)/C=C/c1cccc(N(Cc2ccc(-c3ccccc3C)cc2)C(=O)C2CCCCC2)c1 [compound 21, (E)-Methyl 3-(3-(N-((2′-methyl-[1,1′-biphenyl]-4-yl)methyl)cyclohexanecarboxamido)phenyl)acrylate] was tested, and the “Cmpd/Fex (ratio of the EC50 for the test compound relative to the EC50 of the Fexaramine control)” value [1] was “+++ (‘+++’ means Cmpd/Fex < 10)” and the EC50 [2] was 1000 to 10000 nM.
In the case of COC(=O)/C=C/c1cccc(N(Cc2ccc(-c3ccncc3)cc2)C(=O)C2CCCCC2)c1 [compound 22, (E)-Methyl 3-(3-(N-(4-(pyridin-4-yl)benzyl)cyclohexanecarboxamido)phenyl) acrylate], the “Cmpd/Fex (ratio of the EC50 for the test compound relative to the EC50 of the Fexaramine control)” value [1] is reported as “+ (‘+’ means Cmpd/Fex > 100)” and the EC50 [2] is reported as 1000 to 10000 nM.
